The source of these data is ChEMBL document CHEMBL2384905, “Therapeutic agents triggering nonapoptotic cancer cell death” (J Med Chem, 2013).

For orientation: TGI means the reduction of tumour growth relative to the control group.

Type in all cases: functional, Homo sapiens, Cancer cell lines
A short description of assay [1]: Antitumor activity against lung cancer cells in lung cancer patient assessed as survival rate relative to control.
Assay [2] can be described thus: Antitumor activity against lung cancer cells in lung cancer patient assessed as tumor growth inhibition relative to control.
Assay [3] can be described thus: Antitumor activity against lung cancer cells in lung cancer patient assessed as remission rate relative to control.

Each structure is given as a SMILES string.

Take `CC(C)=CC[C@@H](O)C1=CC(=O)c2c(O)ccc(O)c2C1=O` [SHIKONIN]: the Survival in assay [1] is listed as 47%. Besides, the TGI in assay [2] is reported as 63%. Besides, in assay [3], the Activity is reported as 37%.
